Assay [1] concerns the target T1, full-length beta-Catenin (Uniprot ID P35222) (Homo sapiens, UniProt P35222).
T1 construct: 10 nM full-length beta-Catenin (Uniprot ID P35222)
T1 sequence (P35222 1-781): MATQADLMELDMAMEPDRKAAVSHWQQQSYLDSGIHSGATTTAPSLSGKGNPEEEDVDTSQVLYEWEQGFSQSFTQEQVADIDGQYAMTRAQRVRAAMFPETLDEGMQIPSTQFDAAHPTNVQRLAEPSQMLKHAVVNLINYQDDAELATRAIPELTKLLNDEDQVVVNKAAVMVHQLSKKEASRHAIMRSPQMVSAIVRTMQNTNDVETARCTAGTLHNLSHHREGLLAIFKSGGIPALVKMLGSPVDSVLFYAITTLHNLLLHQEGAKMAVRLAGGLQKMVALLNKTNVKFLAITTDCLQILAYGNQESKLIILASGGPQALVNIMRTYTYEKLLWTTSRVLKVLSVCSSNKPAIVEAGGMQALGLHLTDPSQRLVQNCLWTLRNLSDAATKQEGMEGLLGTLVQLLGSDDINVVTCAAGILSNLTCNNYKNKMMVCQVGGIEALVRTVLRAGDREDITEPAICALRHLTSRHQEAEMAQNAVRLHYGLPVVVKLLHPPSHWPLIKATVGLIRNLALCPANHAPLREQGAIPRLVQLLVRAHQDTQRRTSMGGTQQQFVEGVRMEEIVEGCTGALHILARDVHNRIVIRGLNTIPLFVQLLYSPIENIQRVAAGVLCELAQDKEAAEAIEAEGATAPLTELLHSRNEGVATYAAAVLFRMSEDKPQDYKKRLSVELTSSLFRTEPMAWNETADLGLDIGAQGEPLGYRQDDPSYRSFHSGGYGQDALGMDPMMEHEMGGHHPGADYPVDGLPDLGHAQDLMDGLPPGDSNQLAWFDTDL
The assay is described as follows: Fluorescence polarization IC50 (beta-catenin / 5FAM-TCF4 10-53 competition). The class given is binding. To be noted: fluorescence polarization; read-out: beta-Catenin FP IC50.

In assay [2] the target is T2, beta-catenin/TCF4 engagement (Homo sapiens, UniProt P35222).
T2 construct: expressed in transfected cells; host or cells: HEK293
T2 sequence (P35222 1-781): T1 sequence (P35222 1-781)
Kind of assay: Nano-BRET target engagement assay (B-cat-Halo & TCF4-Luc in HEK293 cells). The class given is cell-based. To be noted: read-out: NanoBRET Abs IC50.

This note sets out measurements from patent publication US20240116985A1, “STAPLED PEPTIDES AND METHODS THEREOF” (priority 2020, published 2024).

Some results are limits rather than exact numbers.

Take `CC(=O)N1CCC[C@]12CC=CCCCC1(CCCC=CCCCOC(=O)N3CC[C@@](C(=O)N[C@@H](Cc4ccccc4Cl)C(=O)N[C@@H](Cc4csc5ccccc45)C(N)=O)(C3)NC(=O)[C@H](CC(C)C)NC(=O)[C@H](Cc3ccccc3)NC(=O)[C@H](C)NC(=O)[C@H](C)NC(=O)[C@H](Cc3cccc(C(=O)O)c3)NC(=O)[C@H](CC(=O)O)NC1=O)NC(=O)[C@H](CC(C)(C)C)NC(=O)[C@H](CC(=O)O)NC2=O` (stereo partly drawn) [I-1852, Ac-PL3-Asp-Npg-B5-Asp-3COOHF-Ala-Ala-Phe-Leu-PyrS2-2C1F-BztA-NH2]: the IC50 in assay [1] came to 48 nM; in assay [2], 4900 nM.

As for `CC(=O)N1CCC[C@]12CC=CCCCC1(CCCC=CCCCOC(=O)N3CC[C@@](C(=O)N[C@@H](Cc4ccccc4Cl)C(=O)N[C@@H](Cc4csc5ccccc45)C(=O)N[C@@H](CO)C(N)=O)(C3)NC(=O)[C@H](CC(C)C)NC(=O)[C@H](Cc3ccccc3)NC(=O)[C@H](C)NC(=O)[C@H](C)NC(=O)[C@H](Cc3cccc(C(=O)O)c3)NC(=O)[C@H](CC(=O)O)NC1=O)NC(=O)[C@H](CC(C)(C)C)NC(=O)[C@H](CC(N)=O)NC2=O` (stereo partly drawn) [I-1853, Ac-PL3-Asn-Npg-B5-Asp-3COOHF-Ala-Ala-Phe-Leu-PyrS2-2C1F-BztA-Ser-NH2], the IC50 in assay [1] came out at 114 nM; in assay [2], 16300 nM.

Take `CC(=O)N1CCC[C@]12CC=CCCCC1(CCCC=CCCCOC(=O)N3CC[C@@](C(=O)N[C@@H](Cc4ccsc4)C(=O)N[C@@H](Cc4csc5ccccc45)C(=O)N[C@@H](CCC(N)=O)C(N)=O)(C3)NC(=O)[C@H](Cn3cc(CN(C)C)nn3)NC(=O)[C@H](Cc3ccccc3)NC(=O)[C@H](C)NC(=O)[C@H](C)NC(=O)[C@H](CN(CC(=O)O)CC(F)(F)F)NC(=O)[C@H](CC(=O)O)NC1=O)NC(=O)[C@H](CC(C)(C)C)NC(=O)[C@H](CC(=O)O)NC2=O` (stereo partly drawn) [I-1861, Ac-PL3-Asp-Npg-B5-Asp-TfeGA-Ala-Ala-Phe-[CH2NMe2]TriAzDap-PyrS2-3Thi-BztA-Gln-NH2]: the half-maximal inhibitory concentration (IC50) was 14 nM in assay [1] and 37300 nM in assay [2].

Take `CC(=O)N1CCC[C@]12CC=CCCCC1(CCCC=CCCCOC(=O)N3CC[C@@](C(=O)N[C@@H](Cc4ccsc4)C(=O)N[C@@H](Cc4csc5ccccc45)C(=O)N[C@@H](CCC(N)=O)C(N)=O)(C3)NC(=O)[C@H](Cn3cc(CN(C)C)nn3)NC(=O)[C@H](Cc3ccccc3)NC(=O)[C@H](C)NC(=O)[C@H](C)NC(=O)[C@H](CN(CC(=O)O)CC(F)(F)F)NC(=O)[C@H](CC(=O)O)NC1=O)NC(=O)[C@H](CC(C)(C)C)NC(=O)[C@H](CC(=O)O)NC2=O` (stereo partly drawn) [I-1862, Ac-PL3-Asp-Npg-B5-Asp-TfeGA-Ala-Ala-Phe-[CH2NMe2]TriAzDap-PyrS2-3Thi-BztA-Gln-NH2]: the concentration for half-maximal inhibition (IC50) was 10 nM in assay [1] and 19300 nM in assay [2].

On to `CC(=O)N1CCC[C@]12CC=CCCCC1(CCCC=CCCCOC(=O)N3CC[C@@](C(=O)N[C@@H](Cc4ccsc4)C(=O)N[C@@H](Cc4csc5ccccc45)C(=O)N[C@@H](CCC(N)=O)C(N)=O)(C3)NC(=O)[C@H](Cn3cc(CN4CCNCC4)nn3)NC(=O)[C@H](Cc3ccccc3)NC(=O)[C@H](C)NC(=O)[C@H](C)NC(=O)[C@H](CN(CC(=O)O)CC(F)(F)F)NC(=O)[C@H](CC(=O)O)NC1=O)NC(=O)[C@H](CC(C)(C)C)NC(=O)[C@H](CC(=O)O)NC2=O` (stereo partly drawn) [I-1864, Ac-PL3-Asp-Npg-B5-Asp-TfeGA-Ala-Ala-Phe-[CH2Ppz]TriAzDap-PyrS2-3Thi-BztA-Gln-NH2], for which the figures for the IC50 in assay [1] and in assay [2] were 14 nM and above 20000 nM, respectively.

Take `CC(=O)N1CCC[C@]12CC=CCCCC1(CCCC=CCCCOC(=O)N3CC[C@@](C(=O)N[C@@H](Cc4ccsc4)C(=O)N[C@@H](Cc4csc5ccccc45)C(=O)N[C@@H](CCC(N)=O)C(N)=O)(C3)NC(=O)[C@H](Cn3cc(CN4CCOCC4)nn3)NC(=O)[C@H](Cc3ccccc3)NC(=O)[C@H](C)NC(=O)[C@H](C)NC(=O)[C@H](CN(CC(=O)O)CC(F)(F)F)NC(=O)[C@H](CC(=O)O)NC1=O)NC(=O)[C@H](CC(C)(C)C)NC(=O)[C@H](CC(=O)O)NC2=O` (stereo partly drawn) [I-1865, Ac-PL3-Asp-Npg-B5-Asp-TfeGA-Ala-Ala-Phe-[MorphCH2]TriAzDap-PyrS2-3Thi-BztA-Gln-NH2]: the IC50 in assay [1] is 10 nM; in assay [2], above 20000 nM.

On to `CC(=O)N1CCC[C@]12CC=CCCCC1(CCCC=CCCCOC(=O)N3CC[C@@](C(=O)N[C@@H](Cc4ccsc4)C(=O)N[C@@H](Cc4csc5ccccc45)C(=O)N[C@@H](CCC(N)=O)C(N)=O)(C3)NC(=O)[C@H](Cn3cc(CN4CCOCC4)nn3)NC(=O)[C@H](Cc3ccccc3)NC(=O)[C@H](C)NC(=O)[C@H](C)NC(=O)[C@H](CN(CC(=O)O)CC(F)(F)F)NC(=O)[C@H](CC(=O)O)NC1=O)NC(=O)[C@H](CC(C)(C)C)NC(=O)[C@H](CC(=O)O)NC2=O` (stereo partly drawn) [I-1866, Ac-PL3-Asp-Npg-B5-Asp-TfeGA-Ala-Ala-Phe-[MorphCH2]TriAzDap-PyrS2-3Thi-BztA-Gln-NH2], for which the figures for the IC50 in assay [1] and in assay [2] were 26 nM and above 20000 nM, respectively.

As for `CC(=O)N1CCC[C@]12CC=CCCCC1(CCCC=CCCCOC(=O)N3CC[C@@](C(=O)N[C@@H](Cc4ccsc4)C(=O)N[C@@H](Cc4csc5ccccc45)C(=O)N[C@@H](CCC(N)=O)C(N)=O)(C3)NC(=O)[C@H](Cn3cc(CN4CCOCC4)nn3)NC(=O)[C@H](Cc3ccccc3)NC(=O)[C@H](C)NC(=O)[C@H](C)NC(=O)[C@H](CN(CC(=O)O)CC(F)(F)F)NC(=O)[C@H](CC(=O)O)NC1=O)NC(=O)[C@H](CC(C)(C)C)NC(=O)[C@H](CC(=O)O)NC2=O` (stereo partly drawn) [I-1867, Ac-PL3-Asp-Npg-B5-Asp-TfeGA-Ala-Ala-Phe-[MorphCH2]TriAzDap-PyrS2-3Thi-BztA-Gln-NH2], the IC50 in assay [1] came to 7 nM; in assay [2], 16400 nM.

As for `CC(=O)N1CCC[C@]12CC=CCCCC1(CCCC=CCCCOC(=O)N3CC[C@@](C(=O)N[C@@H](Cc4ccsc4)C(=O)N[C@@H](Cc4csc5ccccc45)C(=O)N[C@@H](CCC(N)=O)C(N)=O)(C3)NC(=O)[C@H](CC(N)=O)NC(=O)[C@H](Cc3ccccc3)NC(=O)[C@H](C)NC(=O)[C@H](C)NC(=O)[C@H](CCCNC(=N)N)NC(=O)[C@H](CC(=O)O)NC1=O)NC(=O)[C@H](CC(C)(C)C)NC(=O)[C@H](CC(=O)O)NC2=O` (stereo partly drawn) [I-1890, Ac-PL3-Asp-Npg-B5-Asp-Arg-Ala-Ala-Phe-Asn-PyrS2-3Thi-BztA-Gln-NH2], the IC50 in assay [1] is 31 nM; in assay [2] it was above 20000 nM.

In the case of `CC(=O)N1CCC[C@]12CC=CCCCC1(CCCC=CCCCOC(=O)N3CC[C@@](C(=O)N[C@@H](Cc4ccsc4)C(=O)N[C@@H](Cc4csc5ccccc45)C(=O)N[C@@H](CCC(N)=O)C(N)=O)(C3)NC(=O)[C@H](CC(N)=O)NC(=O)[C@H](Cc3ccccc3)NC(=O)[C@H](C)NC(=O)[C@H](C)NC(=O)[C@H](CCCNC(=N)N)NC(=O)[C@H](CC(=O)O)NC1=O)NC(=O)[C@H](CC(C)(C)C)NC(=O)[C@H](CC(=O)O)NC2=O` (stereo partly drawn) [I-1891, Ac-PL3-Asp-Npg-B5-Asp-Arg-Ala-Ala-Phe-Asn-PyrS2-3Thi-BztA-Gln-NH2], the IC50 is 40 nM in assay [1] and above 20000 nM in assay [2].

For the molecule `CC(=O)N1CCC[C@]12CC=CCCCC1(CCCC=CCCCOC(=O)N3CC[C@@](C(=O)N[C@@H](CC4CCC4)C(=O)N[C@@H](Cc4csc5ccccc45)C(=O)N[C@@H](CO)C(N)=O)(C3)NC(=O)[C@H](CC(C)C)NC(=O)[C@H](Cc3ccccc3)NC(=O)[C@H](C)NC(=O)[C@H](C)NC(=O)[C@H](Cc3cccc(C(=O)O)c3)NC(=O)[C@H](CC(=O)O)NC1=O)NC(=O)[C@H](CC(C)(C)C)NC(=O)[C@H](CC(=O)O)NC2=O` (stereo partly drawn) [I-1898, Ac-PL3-Asp-Npg-B5-Asp-3COOHF-Ala-Ala-Phe-Leu-PyrS2-Cba-BztA-Ser-NH2], the results for the IC50 in assay [1] and in assay [2] were 22 nM and 10900 nM, respectively.

In the case of `CC(=O)N1CCC[C@]12CC=CCCCC1(CCCC=CCCCOC(=O)N3CC[C@@](C(=O)N[C@@H](Cc4ccccc4Cl)C(=O)N[C@@H](Cc4csc5ccccc45)C(=O)N[C@@H](CO)C(N)=O)(C3)NC(=O)[C@H](CC(C)C)NC(=O)[C@H](Cc3ccccc3)NC(=O)[C@H](C)NC(=O)C(C)(C)NC(=O)[C@H](Cc3cccc(C(=O)O)c3)NC(=O)[C@H](CC(=O)O)NC1=O)NC(=O)[C@H](CC(C)(C)C)NC(=O)[C@H](CC(=O)O)NC2=O` (stereo partly drawn) [I-1899, Ac-PL3-Asp-Npg-B5-Asp-3COOHF-Aib-Ala-Phe-Leu-PyrS2-2C1F-BztA-Ser-NH2], the IC50 in assay [1] stood at 28 nM; in assay [2], 5100 nM.

For the molecule `CC(=O)N1CCC[C@]12CC=CCCCC1(CCCC=CCCCOC(=O)N3CC[C@@](C(=O)N[C@@H](Cc4ccccc4Cl)C(=O)N[C@@H](Cc4csc5ccccc45)C(=O)N[C@@H](CO)C(N)=O)(C3)NC(=O)[C@H](CC(C)C)NC(=O)[C@H](Cc3ccccc3)NC(=O)[C@H](C)NC(=O)C(C)(C)NC(=O)[C@H](Cc3cccc(C(=O)O)c3)NC(=O)[C@H](CC(=O)O)NC1=O)NC(=O)[C@H](CC(C)(C)C)NC(=O)[C@H](CC(=O)O)NC2=O` (stereo partly drawn) [I-1900, Ac-PL3-Asp-Npg-B5-Asp-3COOHF-Aib-Ala-Phe-Leu-PyrS2-2C1F-BztA-Ser-NH2], the IC50 in assay [1] was 136 nM; in assay [2], above 20000 nM.
